Assay results as given in the supplement of paper PMC11061612.

Columns and labels:
AZD2811 = compound: CCN(CCO)CCCOc1ccc2c(Nc3cc(CC(=O)Nc4cccc(F)c4)[nH]n3)ncnc2c1 [AZD2811]; settings: max 1 µM
Summary of the method: (§1)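 In 1536-well plates, cancer cell lines in 7.5 μl DMEM/F12 or RPMI with 10% FBS spent 24 hours at 37°C and 5% CO2 and were then dosed for 72 hours with final DMSO typically 0.2%. Viability was read by CellTiter-Glo 2.0 luminescence and scaled between blank-well and DMSO-well means. The single-agent IC50 was fitted from dose responses using a logistic curve in a non-linear mixed effects model, and that logistic curve had two parameters.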

AZD8186 = compound: C[C@@H](Nc1cc(F)cc(F)c1)c1cc(C(=O)N(C)C)cc2c(=O)cc(N3CCOCC3)oc12 [AZD8186]; settings: max 3 µM
Summary of the method: as §1

Olaparib = compound: O=C(c1cc(Cc2n[nH]c(=O)c3ccccc23)ccc1F)N1CCN(C(=O)C2CC2)CC1 [Olaparib]; settings: max 10 µM
Summary of the method: as §1

Prexasertib = compound: COc1cccc(OCCCN)c1-c1cc(Nc2cnc(C#N)cn2)n[nH]1 [Prexasertib]; settings: max 1 µM
Summary of the method: as §1

AZD0156 = compound: CN(C)CCCOc1ccc(-c2ccc3ncc4c(c3c2)n(C2CCOCC2)c(=O)n4C)cn1 [AZD0156]; settings: max 3 µM
Summary of the method: as §1

Taselisib = compound: Cc1nc(-c2cn3c(n2)-c2ccc(-c4cnn(C(C)(C)C(N)=O)c4)cc2OCC3)n(C(C)C)n1 [Taselisib]; settings: max 10 µM
Summary of the method: as §1

Gefitinib = compound: COc1cc2ncnc(Nc3ccc(F)c(Cl)c3)c2cc1OCCCN1CCOCC1 [Gefitinib]; settings: max 10 µM
Summary of the method: as §1

Trametinib = compound: CC(=O)Nc1cccc(-n2c(=O)n(C3CC3)c(=O)c3c(Nc4ccc(I)cc4F)n(C)c(=O)c(C)c32)c1 [Trametinib]; settings: max 1 µM
Summary of the method: as §1

AZD4320 = compound: CN(CC[C@H](CSC1=CC=CC=C1)NC2=C(C=C(C=C2)S(=O)(=O)NC(=O)C3=CC=C(C=C3)N4CCC(CC4)[C@H](C5=CC=CC=C5C6=CC=C(C=C6)Cl)O)S(=O)(=O)C(F)(F)F)CCO [AZD4320]; settings: max 1 µM
Summary of the method: as §1

Doxorubicin = compound: COc1cccc2c1C(=O)c1c(O)c3c(c(O)c1C2=O)C[C@@](O)(C(=O)CO)C[C@@H]3O[C@H]1C[C@H](N)[C@H](O)[C@H](C)O1 [Doxorubicin]; settings: max 1 µM
Summary of the method: as §1

AZD6738 = compound: C[C@@H]1COCCN1C2=NC(=NC(=C2)C3(CC3)[S@](=N)(=O)C)C4=C5C=CNC5=NC=C4 [AZD6738]; settings: max 10 µM
Summary of the method: as §1

Capivasertib = compound: C1CN(CCC1(C(=O)N[C@@H](CCO)C2=CC=C(C=C2)Cl)N)C3=NC=NC4=C3C=CN4 [Capivasertib]; settings: max 10 µM
Summary of the method: as §1

Alisertib = compound: COc1cc(Nc2ncc3c(n2)-c2ccc(Cl)cc2C(c2c(F)cccc2OC)=NC3)ccc1C(=O)O [Alisertib]; settings: max 10 µM
Summary of the method: as §1

AZD7648 = compound: Cc1cc2ncnn2cc1Nc1ncc2c(n1)n(C1CCOCC1)c(=O)n2C [AZD7648]; settings: max 10 µM
Summary of the method: as §1

SG3199 = compound: CC1=CN2[C@@H](C1)C=NC3=CC(=C(C=C3C2=O)OC)OCCCCCOC4=C(C=C5C(=C4)N=C[C@@H]6CC(=CN6C5=O)C)OC [SG3199]; settings: max 0.001 µM
Summary of the method: as §1

MK-2206 = compound: NC1(c2ccc(-c3nc4ccn5c(=O)[nH]nc5c4cc3-c3ccccc3)cc2)CCC1 [MK-2206]; settings: max 10 µM
Summary of the method: as §1

Dasatinib = compound: CC1=C(C(=CC=C1)Cl)NC(=O)C2=CN=C(S2)NC3=CC(=NC(=N3)C)N4CCN(CC4)CCO [Dasatinib]; settings: max 2 µM
Summary of the method: as §1

Crizotinib = compound: C[C@@H](Oc1cc(-c2cnn(C3CCNCC3)c2)cnc1N)c1c(Cl)ccc(F)c1Cl [Crizotinib]; settings: max 10 µM
Summary of the method: as §1

AZD1775 = compound: C=CCn1c(=O)c2cnc(Nc3ccc(N4CCN(C)CC4)cc3)nc2n1-c1cccc(C(C)(C)O)n1 [AZD1775]; settings: max 3 µM
Summary of the method: as §1

AZD5991 = compound: Cc1c2c(nn1C)CSCc1cc(n(C)n1)CSc1cc(c3ccccc3c1)OCCCc1c(C(=O)O)n(C)c3c-2c(Cl)ccc13 [AZD5991]; settings: max 1 µM
Summary of the method: as §1

SN-38 = compound: CCc1c2c(nc3ccc(O)cc13)-c1cc3c(c(=O)n1C2)COC(=O)[C@]3(O)CC [SN-38]; settings: max 0.3 µM
Summary of the method: as §1

Lapatinib = compound: CS(=O)(=O)CCNCc1ccc(-c2ccc3ncnc(Nc4ccc(OCc5cccc(F)c5)c(Cl)c4)c3c2)o1 [Lapatinib]; settings: max 10 µM
Summary of the method: as §1

AZD1390 = compound: CC(C)n1c(=O)n(C)c2cnc3cc(F)c(-c4ccc(OCCCN5CCCCC5)nc4)cc3c21 [AZD1390]; settings: max 0.3 µM
Summary of the method: as §1

Savolitinib = compound: C[C@@H](c1ccc2nccn2c1)n1nnc2ncc(-c3cnn(C)c3)nc21 [Savolitinib]; settings: max 1 µM
Summary of the method: as §1

Palbociclib = compound: CC(=O)c1c(C)c2cnc(Nc3ccc(N4CCNCC4)cn3)nc2n(C2CCCC2)c1=O [Palbociclib]; settings: max 10 µM
Summary of the method: as §1

AZD5153 = compound: COc1nnc2ccc(N3CCC(c4ccc(OCCN5CCN(C)C(=O)[C@H]5C)cc4)CC3)nn12 [AZD5153]; settings: max 1 µM
Summary of the method: as §1

Venetoclax = compound: CC1(C)CCC(CN2CCN(c3ccc(C(=O)NS(=O)(=O)c4ccc(NCC5CCOCC5)c([N+](=O)[O-])c4)c(Oc4cnc5[nH]ccc5c4)c3)CC2)=C(c2ccc(Cl)cc2)C1 [Venetoclax]; settings: max 1 µM
Summary of the method: as §1

Selumetinib = compound: Cn1cnc2c(F)c(Nc3ccc(Br)cc3Cl)c(C(=O)NOCCO)cc21 [Selumetinib]; settings: max 10 µM
Summary of the method: as §1

Cell Line: HCC1806 (Breast Carcinoma)
- IC50, cell viability 72 h (AZD2811): > 1000 nM
- IC50, cell viability 72 h (AZD8186): > 3000 nM
- IC50, cell viability 72 h (Olaparib): > 10000 nM
- IC50, cell viability 72 h (Prexasertib): 6.18 nM
- IC50, cell viability 72 h (AZD0156): > 3000 nM
- IC50, cell viability 72 h (Taselisib): 7680 nM
- IC50, cell viability 72 h (Gefitinib): > 10000 nM
- IC50, cell viability 72 h (Trametinib): > 1000 nM
- IC50, cell viability 72 h (AZD4320): > 1000 nM
- IC50, cell viability 72 h (Doxorubicin): 258 nM
- IC50, cell viability 72 h (AZD6738): 1080 nM
- IC50, cell viability 72 h (Capivasertib): > 10000 nM
- IC50, cell viability 72 h (Alisertib): > 10000 nM
- IC50, cell viability 72 h (AZD7648): > 10000 nM
- IC50, cell viability 72 h (SG3199): > 1 nM
- IC50, cell viability 72 h (MK-2206): > 10000 nM
- IC50, cell viability 72 h (Dasatinib): 414 nM
- IC50, cell viability 72 h (Crizotinib): 9230 nM
- IC50, cell viability 72 h (AZD1775): 271 nM
- IC50, cell viability 72 h (AZD5991): > 1000 nM
- IC50, cell viability 72 h (SN-38): 12.1 nM
- IC50, cell viability 72 h (Lapatinib): 6200 nM
- IC50, cell viability 72 h (AZD1390): > 300 nM
- IC50, cell viability 72 h (Savolitinib): > 1000 nM
- IC50, cell viability 72 h (Palbociclib): > 10000 nM
- IC50, cell viability 72 h (AZD5153): 301 nM
- IC50, cell viability 72 h (Venetoclax): > 1000 nM
- IC50, cell viability 72 h (Selumetinib): > 10000 nM

Cell Line: SNU-5 (Gastric Carcinoma)
- IC50, cell viability 72 h (AZD2811): > 1000 nM
- IC50, cell viability 72 h (AZD8186): > 3000 nM
- IC50, cell viability 72 h (Olaparib): > 10000 nM
- IC50, cell viability 72 h (Prexasertib): 18.1 nM
- IC50, cell viability 72 h (AZD0156): > 3000 nM
- IC50, cell viability 72 h (Taselisib): > 10000 nM
- IC50, cell viability 72 h (Gefitinib): > 10000 nM
- IC50, cell viability 72 h (Trametinib): 81.1 nM
- IC50, cell viability 72 h (AZD4320): > 1000 nM
- IC50, cell viability 72 h (Doxorubicin): > 1000 nM
- IC50, cell viability 72 h (AZD6738): 1310 nM
- IC50, cell viability 72 h (Capivasertib): > 10000 nM
- IC50, cell viability 72 h (Alisertib): > 10000 nM
- IC50, cell viability 72 h (AZD7648): > 10000 nM
- IC50, cell viability 72 h (SG3199): > 1 nM
- IC50, cell viability 72 h (MK-2206): > 10000 nM
- IC50, cell viability 72 h (Dasatinib): > 2000 nM
- IC50, cell viability 72 h (Crizotinib): 86.9 nM
- IC50, cell viability 72 h (AZD1775): 1850 nM
- IC50, cell viability 72 h (AZD5991): > 1000 nM
- IC50, cell viability 72 h (SN-38): 6.92 nM
- IC50, cell viability 72 h (Lapatinib): > 10000 nM
- IC50, cell viability 72 h (AZD1390): > 300 nM
- IC50, cell viability 72 h (Savolitinib): 7.44 nM
- IC50, cell viability 72 h (Palbociclib): > 10000 nM
- IC50, cell viability 72 h (AZD5153): > 1000 nM
- IC50, cell viability 72 h (Venetoclax): > 1000 nM
- IC50, cell viability 72 h (Selumetinib): 2570 nM

Cell Line: KP-1N (Pancreatic Carcinoma)
- IC50, cell viability 72 h (AZD2811): > 1000 nM
- IC50, cell viability 72 h (AZD8186): > 3000 nM
- IC50, cell viability 72 h (Olaparib): > 10000 nM
- IC50, cell viability 72 h (Prexasertib): > 1000 nM
- IC50, cell viability 72 h (AZD0156): > 3000 nM
- IC50, cell viability 72 h (Taselisib): > 10000 nM
- IC50, cell viability 72 h (Gefitinib): > 10000 nM
- IC50, cell viability 72 h (Trametinib): > 1000 nM
- IC50, cell viability 72 h (AZD4320): > 1000 nM
- IC50, cell viability 72 h (Doxorubicin): > 1000 nM
- IC50, cell viability 72 h (AZD6738): > 10000 nM
- IC50, cell viability 72 h (Capivasertib): > 10000 nM
- IC50, cell viability 72 h (Alisertib): > 10000 nM
- IC50, cell viability 72 h (AZD7648): > 10000 nM
- IC50, cell viability 72 h (SG3199): > 1 nM
- IC50, cell viability 72 h (Dasatinib): > 2000 nM
- IC50, cell viability 72 h (Crizotinib): > 10000 nM
- IC50, cell viability 72 h (AZD1775): > 3000 nM
- IC50, cell viability 72 h (AZD5991): > 1000 nM
- IC50, cell viability 72 h (SN-38): > 300 nM
- IC50, cell viability 72 h (Lapatinib): > 10000 nM
- IC50, cell viability 72 h (AZD1390): > 300 nM
- IC50, cell viability 72 h (Savolitinib): > 1000 nM
- IC50, cell viability 72 h (Palbociclib): > 10000 nM
- IC50, cell viability 72 h (AZD5153): > 1000 nM
- IC50, cell viability 72 h (Venetoclax): > 1000 nM
- IC50, cell viability 72 h (Selumetinib): > 10000 nM
